Counter-ions that a name gives are not always drawn. Like-named read-outs stand apart in the source and are kept apart here.
Legend:
human D1 receptor = target: T1, human D1 receptor (Homo sapiens, UniProt P21728); assay: Radioligand binding to dopamine receptor D1 ([3H] SCH-23390, CHO membranes); settings: for inhibition at 10 µM: read-out: Dopamine receptors, % inhibition D1
T1 construct: expressed in transfected cells; host or cells: CHO
Source text: For this purpose sDNA of human D1 receptor is expressed in CHO cells, as it was described in [Dearry A, Gingrich JA, Falardeau P, Fremeau RT Jr, Bates MD and Caron MG. Molecular cloning and expression of the gene for a human D1 dopamine receptor. Nature. […] Nature.

human H1 receptor = target: T2, human H1 receptor (Homo sapiens, UniProt P35367); assay: Radioligand binding to histamine receptor H1 ([3H] Pyrilamine, CHO-K1 membranes); settings: for nH: histamine H1 receptors
T2 construct: expressed in transfected cells; host or cells: CHO-K1
Source text: Biochem Biophys Res Comm. 197(3): 1601-1608, 1993]. […] Biochem Biophys Res Comm. 197(3): 1601-1608, 1993].
Pyrilamine is used as positive control.

human D4.2 receptor = target: T3, human D4.2 receptor (Homo sapiens, UniProt P21917, DEL265-296); assay: Radioligand binding to dopamine receptor D4.2 ([3H] Spiperone, CHO-K1 membranes); settings: read-out: Dopamine receptors, % inhibition D4.2
T3 construct: expressed in transfected cells; host or cells: CHO-K1
T3 sequence (P21917 with tags, fused parts or gaps DEL265-296): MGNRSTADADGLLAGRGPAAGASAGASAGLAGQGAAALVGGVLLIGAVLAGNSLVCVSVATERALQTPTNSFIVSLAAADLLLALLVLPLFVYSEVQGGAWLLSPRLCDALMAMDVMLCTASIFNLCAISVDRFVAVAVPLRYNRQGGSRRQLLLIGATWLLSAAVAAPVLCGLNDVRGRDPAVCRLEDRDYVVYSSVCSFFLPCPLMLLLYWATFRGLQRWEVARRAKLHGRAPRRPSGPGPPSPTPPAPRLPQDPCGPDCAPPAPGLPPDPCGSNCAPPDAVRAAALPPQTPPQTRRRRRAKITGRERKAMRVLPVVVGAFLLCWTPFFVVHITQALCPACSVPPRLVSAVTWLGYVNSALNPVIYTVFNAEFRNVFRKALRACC
Experimental: Screening of the disclosed compounds for potential ability to interact with dopamine receptor D4.2 is carried out by method of radioligand binding. […] From the cells transfected in this way membrane species are prepared by homogenization of these cells in glass homogenizer with the subsequent separation of plasmatic membranes from cell nuclei, mitochondrias and cell wreckages by differential centrifugation. […] After incubation samples are filtered in vacuo on glass-microfiber filters G/F (Millipor, USA), filters are washed three times with cold solution of medium and radioactivity is measured by scintillation counter MicroBeta 340 (Perkin Elmer, USA). Nonspecific binding which makes up 10% of the overall binding is determined by incubation of membrane species with radioligand in the presence of 10 µM of Haloperidol.
Spiperone is used as positive control. Tested compounds' binding to the receptor is determined by their ability to displace radioligand and expressed in percent of displacement (%I). Values of %I are calculated according to the following equation: %I = (TA-CA)/(TA-NA)*100, [formula] wherein: TA - is overall radioactivity in the presence of radioligand only, CA - is radioactivity in the presence of radioligand and tested compound and NA - is radioactivity in the presence of radioligand and Haloperidol (10 µM).

human D3 receptor = target: T4, human D3 receptor (Homo sapiens, UniProt P35462); assay: Radioligand binding to dopamine receptor D3 ([3H] Spiperone, CHO membranes)
T4 construct: expressed in transfected cells; host or cells: CHO
Source text: For this purpose sDNA of human D3 receptor is expressed in CHO cells, as it was described in [Sokoloff P, Giros B, Martres M-P, Bouthenet M-L and Schwartz J-C. Molecular cloning and characterization of novel dopamine receptor (D3) as target for neuroleptics. Nature. […] Molecular cloning and characterization of novel dopamine receptor (D3) as target for neuroleptics. Nature. […] Spiperone is used as positive control.

human α1D receptor = target: T5, human α1D receptor (Homo sapiens, UniProt P25100); assay: Radioligand binding to adrenergic receptor α1D ([3H] Prazosin, HEK-293 membranes); settings: for nH: Receptor α1D
T5 construct: expressed in transfected cells; host or cells: HEK-293
T5 sequence (P25100 1-572): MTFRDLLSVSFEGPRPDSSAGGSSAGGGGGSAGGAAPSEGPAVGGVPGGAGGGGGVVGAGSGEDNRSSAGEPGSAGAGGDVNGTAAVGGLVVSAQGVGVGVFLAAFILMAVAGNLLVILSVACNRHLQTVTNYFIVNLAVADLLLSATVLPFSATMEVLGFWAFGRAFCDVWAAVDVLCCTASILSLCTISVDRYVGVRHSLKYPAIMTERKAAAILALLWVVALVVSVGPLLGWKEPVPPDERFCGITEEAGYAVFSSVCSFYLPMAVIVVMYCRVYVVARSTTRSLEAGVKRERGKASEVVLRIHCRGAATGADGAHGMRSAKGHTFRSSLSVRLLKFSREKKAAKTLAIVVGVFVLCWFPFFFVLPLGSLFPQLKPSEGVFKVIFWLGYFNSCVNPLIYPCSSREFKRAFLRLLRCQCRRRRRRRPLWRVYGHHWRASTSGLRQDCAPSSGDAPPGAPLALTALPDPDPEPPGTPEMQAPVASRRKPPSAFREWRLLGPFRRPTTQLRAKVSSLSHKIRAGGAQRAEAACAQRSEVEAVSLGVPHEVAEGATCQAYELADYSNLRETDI
Source text: 6-C. […] For this purpose sDNA of human α1D receptor is expressed in HEK-293 cells, as it was described in [TL Theroux, TA Esbenshade, RD Peavy and KP Minneman. Coupling efficiencies of human alpha 1-adrenergic receptor subtypes: titration of receptor density and responsiveness with inducible and repressible expression vectors. Mol Pharmacol.; 50: 1376-1387, 1996]. […] Characterization of an α1D-adrenoceptor mediating the contractile response of rat aorta to noradrenaline. […] Prazosin is used as positive control.

[1] = target: T6, recombinant human 5-HT2C receptor (Homo sapiens, UniProt P28335); assay: Radioligand binding to serotonin receptor 5-HT2C ([3H] Mesulergine, CHO-K1 membranes); settings: for nH: 5-HT2C
T6 construct: expressed in transfected cells; host or cells: CHO-K1
T6 sequence (P28335 33-458): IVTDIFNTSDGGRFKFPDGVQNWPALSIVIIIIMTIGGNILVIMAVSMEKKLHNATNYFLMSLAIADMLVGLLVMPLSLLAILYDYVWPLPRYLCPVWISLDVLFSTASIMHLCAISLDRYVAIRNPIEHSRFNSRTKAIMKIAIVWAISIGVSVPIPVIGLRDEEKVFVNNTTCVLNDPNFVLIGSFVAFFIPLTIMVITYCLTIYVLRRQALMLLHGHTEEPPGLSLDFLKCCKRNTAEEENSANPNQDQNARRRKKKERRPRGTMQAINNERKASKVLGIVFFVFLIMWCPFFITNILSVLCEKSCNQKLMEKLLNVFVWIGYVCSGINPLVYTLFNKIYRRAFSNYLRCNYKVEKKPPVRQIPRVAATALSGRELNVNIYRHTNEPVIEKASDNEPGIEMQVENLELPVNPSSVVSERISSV
Source text: J Neurochem. 69: 1449 - 1458, 1997]. […] SB242084 is used as positive control.

human 5-HT7 receptor = target: T7, human 5-HT7 receptor (Homo sapiens, UniProt P34969); assay: Radioligand binding to serotonin receptor 5-HT7 ([3H] Lysergic acid diethylamide, CHO membranes)
T7 construct: expressed in transfected cells; host or cells: CHO
Source text: For this purpose sDNA of human 5-HT7 receptor is expressed in CHO cells as it was described in [Shen Y, Monsma FJ Jr, Metcalf MA, Jose PA, Hamblin MW, and Sibley DR. […] J. Biol. Chem. 1993, 268, 18200 - 18204]. […] J. Pharmacol. Exp. Ther. 1994, 268:1403-1410]. […] Methiothepin is used as positive control.

[2] = target: T8, recombinant human 5-HT2A receptor (Homo sapiens, UniProt P28223); assay: Radioligand binding to serotonin receptor 5-HT2A ([3H] Ketanserin, CHO-K1 membranes); settings: for inhibition at 10 µM / 5-HT2A % inhibition: 10 µM ligand
T8 construct: expressed in transfected cells; host or cells: CHO-K1
Source text: 9-C. […] J Neurochem. […] Ketanserin is used as positive control.

[3] = read-out: Histamine receptors, % inhibition H1, 10 µM ligand
[4] = read-out: Dopamine receptors, % inhibition D3
[5] = read-out: α-Adrenoceptor, % inhibition α1D

T4 sequence (P35462 whole entry): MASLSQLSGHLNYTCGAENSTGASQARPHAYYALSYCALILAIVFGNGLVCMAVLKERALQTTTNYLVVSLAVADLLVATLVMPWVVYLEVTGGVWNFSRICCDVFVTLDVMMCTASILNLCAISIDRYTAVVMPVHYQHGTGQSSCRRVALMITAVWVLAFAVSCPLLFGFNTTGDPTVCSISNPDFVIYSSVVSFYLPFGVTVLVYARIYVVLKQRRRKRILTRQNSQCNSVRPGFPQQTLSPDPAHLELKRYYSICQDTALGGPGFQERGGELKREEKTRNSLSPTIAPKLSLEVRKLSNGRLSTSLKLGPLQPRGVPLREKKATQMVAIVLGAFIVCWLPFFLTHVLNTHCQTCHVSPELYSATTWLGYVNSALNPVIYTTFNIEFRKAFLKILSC
T8 sequence (P28223 whole entry): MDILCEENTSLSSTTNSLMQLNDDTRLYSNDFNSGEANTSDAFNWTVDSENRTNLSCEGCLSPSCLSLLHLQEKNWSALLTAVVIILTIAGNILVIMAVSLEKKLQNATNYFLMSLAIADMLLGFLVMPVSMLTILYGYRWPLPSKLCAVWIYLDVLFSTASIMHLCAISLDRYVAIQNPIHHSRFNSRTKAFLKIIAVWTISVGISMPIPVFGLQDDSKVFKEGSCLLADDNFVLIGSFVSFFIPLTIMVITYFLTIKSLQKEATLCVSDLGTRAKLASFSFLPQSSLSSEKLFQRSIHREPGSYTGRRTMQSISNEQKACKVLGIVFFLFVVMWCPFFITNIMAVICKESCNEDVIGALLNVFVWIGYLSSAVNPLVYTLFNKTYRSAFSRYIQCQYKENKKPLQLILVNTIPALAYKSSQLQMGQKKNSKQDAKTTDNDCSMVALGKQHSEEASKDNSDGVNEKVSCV
T7 sequence (P34969 whole entry): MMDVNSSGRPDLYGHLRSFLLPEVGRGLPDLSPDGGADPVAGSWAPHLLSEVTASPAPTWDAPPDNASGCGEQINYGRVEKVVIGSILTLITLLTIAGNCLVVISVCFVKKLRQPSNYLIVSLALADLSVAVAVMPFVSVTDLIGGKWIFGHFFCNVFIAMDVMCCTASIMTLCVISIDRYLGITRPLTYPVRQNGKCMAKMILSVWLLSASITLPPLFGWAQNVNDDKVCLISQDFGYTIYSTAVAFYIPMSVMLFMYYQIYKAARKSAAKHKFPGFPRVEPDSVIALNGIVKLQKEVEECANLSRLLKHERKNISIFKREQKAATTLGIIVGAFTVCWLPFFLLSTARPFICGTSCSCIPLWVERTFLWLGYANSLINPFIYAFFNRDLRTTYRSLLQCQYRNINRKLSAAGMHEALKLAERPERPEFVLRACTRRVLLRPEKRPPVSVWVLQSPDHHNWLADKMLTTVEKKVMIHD
T2 sequence (P35367 whole entry): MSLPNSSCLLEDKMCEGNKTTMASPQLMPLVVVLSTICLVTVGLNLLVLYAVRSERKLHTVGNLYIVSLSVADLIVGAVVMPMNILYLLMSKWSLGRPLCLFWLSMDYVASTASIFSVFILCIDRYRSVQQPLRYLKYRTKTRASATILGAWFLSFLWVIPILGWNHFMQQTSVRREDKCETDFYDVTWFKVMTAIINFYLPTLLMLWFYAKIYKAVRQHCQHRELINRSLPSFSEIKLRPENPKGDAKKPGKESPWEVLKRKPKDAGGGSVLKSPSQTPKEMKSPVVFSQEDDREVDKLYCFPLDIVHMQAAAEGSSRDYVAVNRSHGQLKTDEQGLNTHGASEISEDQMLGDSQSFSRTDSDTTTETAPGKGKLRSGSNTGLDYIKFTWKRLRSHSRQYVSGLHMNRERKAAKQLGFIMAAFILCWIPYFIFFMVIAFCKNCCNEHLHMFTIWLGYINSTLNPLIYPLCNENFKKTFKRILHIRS
T1 sequence (P21728 whole entry): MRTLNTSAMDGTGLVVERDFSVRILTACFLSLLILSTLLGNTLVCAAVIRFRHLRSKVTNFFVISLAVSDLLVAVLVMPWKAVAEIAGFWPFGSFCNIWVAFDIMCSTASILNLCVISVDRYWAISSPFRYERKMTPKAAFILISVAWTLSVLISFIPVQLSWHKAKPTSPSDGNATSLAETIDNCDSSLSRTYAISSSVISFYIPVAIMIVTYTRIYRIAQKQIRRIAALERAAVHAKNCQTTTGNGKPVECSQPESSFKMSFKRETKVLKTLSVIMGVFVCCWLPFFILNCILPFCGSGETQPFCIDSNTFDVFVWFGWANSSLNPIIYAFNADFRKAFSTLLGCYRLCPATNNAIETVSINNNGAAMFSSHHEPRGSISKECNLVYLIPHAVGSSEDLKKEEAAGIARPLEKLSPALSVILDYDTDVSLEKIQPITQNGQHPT

`Cc1ccc2c(c1)[C@@H]1CN(C)CCC[C@@H]1N2CCc1cccnc1` (relative stereo) [1.6.1(1)·3HCl] was tested, and the inhibition at 10 µM (human D1 receptor) was 59%, the inhibition at 10 µM (human H1 receptor; [3]) was 100% and the inhibition at 10 µM (human D4.2 receptor) was -6%. For the same compound, the inhibition at 10 µM (human D3 receptor; [4]) was 34%, the inhibition at 10 µM (human α1D receptor; [5]) was 90% and the inhibition at 1 µM ([1]; read-out: 5-HT2C % inhibition) was 95%.
In the case of `Cc1ccc2c(c1)[C@@H]1CN(C)CCC[C@@H]1N2CCc1ccc(C)nc1` (relative stereo) [1.6.1(2)·3HCl], the inhibition at 10 µM (human D1 receptor) is reported as 55%, the inhibition at 10 µM (human 5-HT7 receptor; read-out: 5-HT7 % inhibition) is reported as 8% and the inhibition at 10 µM (human H1 receptor; [3]) is reported as 102%. The inhibition at 10 µM (human D4.2 receptor) was -11%, the inhibition at 10 µM (human D3 receptor; [4]) was 41% and the inhibition at 10 µM (human α1D receptor; [5]) was 87%. The inhibition at 10 µM ([1]; read-out: 5-HT2C % inhibition) was 4% and the inhibition at 10 µM [2] was -4%.
Compound `Cc1ccc2c(c1)c1c(n2CCc2ccccc2)CCN(C)C1` [1.1.2(1-2)·HCl, 2,8-dimethyl-5-phenethyl-1,2,3,4-tetrahydro-1H-pyrido[4,3-b]indole hydrochloride] has an inhibition at 10 µM (human α1D receptor; [5]) of 102%.
`Cc1ccc(CCn2c3c(c4cc(C)ccc42)CN(C)CC3)cc1` [1.1.2(1-3), 2,8-dimethyl-5-[2-(4-methylphenyl)-ethyl]-1,2,3,4-tetrahydro-1H-pyrido[4,3-b]indole] was tested, and the 5-HT7 % inhibition (human 5-HT7 receptor; 10 µM ligand) was 98%, the nH (human α1D receptor) was 1,21 and the 5-HT2C % inhibition ([1]; 10 µM ligand) was 98%. For the same compound, the 5-HT2A % inhibition [2] was 98%.
`Cc1ccc2c(c1)c1c(n2CCc2ccccn2)CCN(C)C1` [1.1.2(2-3)·2HCl] gave an inhibition at 10 µM (human D1 receptor) of 70%, an inhibition at 100 µM (human D4.2 receptor) of 71% and an inhibition at 3 µM (human D3 receptor; [4]) of 78%. For the same compound, the inhibition at 10 µM (human α1D receptor; [5]) was 92% and the inhibition at 1 µM ([1]; read-out: 5-HT2C % inhibition) was 96%.
For `Cc1ccc2c(c1)c1c(n2CCc2ccc(C)nc2)CCN(C)C1` [1.1.2(4-2)·2HCl], the inhibition at 10 µM (human D1 receptor; 10 µM ligand) was 82%, the inhibition at 10 µM (human 5-HT7 receptor; 10 µM ligand, read-out: 5-HT7 % inhibition) was 96% and the inhibition at 10 µM (human H1 receptor; 10 µM ligand, read-out: Histamine receptors, % inhibition H1) was 100%. It also gave a nH (human H1 receptor) of 1.01, an inhibition at 10 µM (human D4.2 receptor; 10 µM ligand) of 54% and an inhibition at 10 µM (human D3 receptor; 10 µM ligand, read-out: Dopamine receptors, % inhibition D3) of 64%. The inhibition at 10 µM ([1]; 10 µM ligand, read-out: 5-HT2C % inhibition) was 76%.
With `Cc1ccc2c(c1)c1c(n2CCc2ccccn2)CCCN(C)C1` [1.2.2(2-2)] the 5-HT7 % inhibition (human 5-HT7 receptor; 10 µM ligand) was 74%, the “α-Adrenoceptor, % inhibition α1D” value (human α1D receptor; 10 µM ligand) was 63% and the 5-HT2A % inhibition [2] was 46%.
In the case of `CN1CCc2c(c3ccccc3n2Cc2ccccc2)C1` [1.9(1)·1/2NDSA, bis-(5-benzyl-2-methyl-2,3,4,5-tetrahydro-1H-pyrido[4,3-b]indole) naphthalene-1,5-disulfonate], the IC50 (human D1 receptor; Receptor D1) is reported as 3.66 µM, the Ki (human D1 receptor; Receptor D1) is reported as 1830 nM and the nH (human D1 receptor; Receptor D1) is reported as 1.38. The inhibition at 10 µM (human D1 receptor) was 77%, the “Histamine receptors, % inhibition H1” value (human H1 receptor; 10 µM ligand) was 105% and the nH (human H1 receptor) was 0.789. The nH (human D3 receptor; Receptor D3) was 1.04, the inhibition at 10 µM (human D3 receptor; [4]) was 65% and the nH (human α1D receptor) was 1,05. For the same compound, the inhibition at 3 µM (human α1D receptor; [5]) was 70% and the nH [1] was 0.987.
Compound `CN1CCc2c(c3ccccc3n2Cc2ccccc2)C1.Cl` [1.9(1)·HCl, 5-benzyl-2-methyl-2,3,4,5-tetrahydro-1H-pyrido[4,3-b]indole hydrochloride] has an inhibition at 0.3 µM (human 5-HT7 receptor; read-out: 5-HT7 % inhibition) of 76%, an inhibition at 10 µM (human 5-HT7 receptor; read-out: 5-HT7 % inhibition) of 91% and an inhibition at 10 µM (human H1 receptor; [3]) of 97%. For the same compound, the nH [1] was 1.21, the inhibition at 0.1 µM ([1]; read-out: 5-HT2C % inhibition) was 79% and the inhibition at 10 µM ([1]; read-out: 5-HT2C % inhibition) was 97%. It also gave an inhibition at 0.1 µM ([2]; 0.1µM ligand) of 68%, an inhibition at 10 µM [2] of 96% and a nH ([2]; 5-HT2A) of 0.765.
